Measurements reported in PubChem BioAssay (NCI).
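Dose response: 5 concentrations. Exposure: 48 h. Format: 96-well plates. Endpoint: linear interpolation; highest concentration if not reached. The concentration for full growth arrest is given as TGI.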

What was measured:
Assay in all cases: NCI tumour cell line growth inhibition, 48 h
[1] = tested on: COLO 205 colon
[2] = tested on: HL-60(TB) leukemia
[3] = tested on: MDA-MB-231 breast
[4] = tested on: ACHN renal
[5] = tested on: OVCAR-3 ovarian
[6] = tested on: OVCAR-4 ovarian
[7] = tested on: DU-145 prostate
[8] = tested on: CCRF-CEM leukemia
[9] = tested on: SK-OV-3 ovarian
[10] = tested on: SW-620 colon
[11] = tested on: HCC-2998 colon
[12] = tested on: KM12 colon
[13] = tested on: SK-MEL-28 melanoma
[14] = tested on: TK-10 renal
[15] = tested on: LOX IMVI melanoma
[16] = tested on: NCI-H460 lung
[17] = tested on: MOLT-4 leukemia
[18] = tested on: MDA-N
[19] = tested on: A498 renal

## Cc1ccc(N/N=C/C2=CC(C)(C)C(C#N)(C#N)C(O)=C2C#N)cc1
[1]
  TGI: > 100 µM
[2]
  TGI: 58.1 µM
[3]
  TGI: > 100 µM
[4]
  TGI: > 100 µM
[5]
  TGI: > 100 µM
[6]
  TGI: > 100 µM
[7]
  TGI: > 100 µM
[8]
  TGI: > 100 µM
[9]
  TGI: > 100 µM
[10]
  TGI: > 100 µM
[11]
  TGI: > 100 µM
[12]
  TGI: > 100 µM
[13]
  TGI: > 100 µM
[14]
  TGI: > 100 µM
[15]
  TGI: > 100 µM
[16]
  TGI: > 100 µM
[17]
  TGI: > 100 µM
[18]
  TGI: > 100 µM

## CC(=O)OC1COC(n2c(O)c(N=Nc3ccc([N+](=O)[O-])cc3)c3cc(Br)c([N+](=O)[O-])cc32)C(OC(C)=O)C1OC(C)=O (stereo not given)
[1]
  TGI: > 100 µM
[2]
  TGI: > 100 µM
[4]
  TGI: 93.6 µM
[5]
  TGI: > 100 µM
[6]
  TGI: > 100 µM
[8]
  TGI: > 100 µM
[9]
  TGI: > 100 µM
[10]
  TGI: > 100 µM
[11]
  TGI: > 100 µM
[12]
  TGI: > 100 µM
[13]
  TGI: > 100 µM
[14]
  TGI: > 100 µM
[15]
  TGI: > 100 µM
[16]
  TGI: > 100 µM
[17]
  TGI: > 100 µM

## O=C1CSC(c2c[nH]c3ccccc23)N1c1cccc([N+](=O)[O-])c1 (stereo not given)
[1]
  TGI: > 100 µM
[2]
  TGI: > 100 µM
[3]
  TGI: > 100 µM
[5]
  TGI: > 100 µM
[6]
  TGI: > 100 µM
[7]
  TGI: > 100 µM
[8]
  TGI: > 100 µM
[9]
  TGI: > 100 µM
[10]
  TGI: > 100 µM
[11]
  TGI: > 100 µM
[12]
  TGI: > 100 µM
[13]
  TGI: > 100 µM
[14]
  TGI: > 100 µM
[15]
  TGI: > 100 µM
[16]
  TGI: > 100 µM
[17]
  TGI: > 100 µM
[18]
  TGI: > 100 µM

## O=S(Nc1ccccc1)c1ccccc1Oc1ccccc1 (stereo not given)
[1]
  TGI: > 100 µM
[2]
  TGI: > 100 µM
[3]
  TGI: > 100 µM
[4]
  TGI: > 100 µM
[5]
  TGI: > 100 µM
[7]
  TGI: > 100 µM
[8]
  TGI: > 100 µM
[10]
  TGI: > 100 µM
[11]
  TGI: 87.1 µM
[12]
  TGI: > 100 µM
[13]
  TGI: > 100 µM
[14]
  TGI: > 100 µM
[15]
  TGI: > 100 µM
[16]
  TGI: > 100 µM
[17]
  TGI: > 100 µM
[18]
  TGI: > 100 µM

## CCOc1ccccc1NC(=O)CSc1nnc(Cc2ccccc2)o1
[1]
  TGI: 36.5 µM
[2]
  TGI: > 100 µM
[4]
  TGI: 46.3 µM
[19]
  TGI: > 100 µM
[5]
  TGI: 32.7 µM
[6]
  TGI: 63.5 µM
[8]
  TGI: > 100 µM
[9]
  TGI: > 100 µM
[10]
  TGI: 37.2 µM
[11]
  TGI: > 100 µM
[12]
  TGI: > 100 µM
[13]
  TGI: > 100 µM
[14]
  TGI: > 100 µM
[15]
  TGI: 40 µM
[16]
  TGI: 44.8 µM
[17]
  TGI: 71.3 µM

## Cc1cc(N(CCC#N)CCC#N)ccc1/C=C(\NC(=O)/C=C/c1ccccc1)NC(=O)Nc1ccccc1C
[1]
  TGI: > 100 µM
[2]
  TGI: > 100 µM
[4]
  TGI: > 100 µM
[19]
  TGI: > 100 µM
[5]
  TGI: > 100 µM
[6]
  TGI: > 100 µM
[8]
  TGI: > 100 µM
[10]
  TGI: > 100 µM
[11]
  TGI: > 100 µM
[12]
  TGI: > 100 µM
[13]
  TGI: > 100 µM
[15]
  TGI: > 100 µM
[16]
  TGI: > 100 µM
[17]
  TGI: > 100 µM

## CCN1C(=O)/C(=C\c2coc3ccccc3c2=O)SC1=S
[1]
  TGI: > 100 µM
[2]
  TGI: > 100 µM
[4]
  TGI: > 100 µM
[19]
  TGI: > 100 µM
[5]
  TGI: > 100 µM
[6]
  TGI: > 100 µM
[8]
  TGI: > 100 µM
[9]
  TGI: > 100 µM
[10]
  TGI: > 100 µM
[11]
  TGI: > 100 µM
[12]
  TGI: > 100 µM
[13]
  TGI: > 100 µM
[14]
  TGI: > 100 µM
[15]
  TGI: > 100 µM
[16]
  TGI: > 100 µM
[17]
  TGI: > 100 µM

## Nc1cc(N2CCOCC2)nc(=O)n1-c1ccccc1
[1]
  TGI: > 100 µM
[2]
  TGI: > 100 µM
[4]
  TGI: > 100 µM
[19]
  TGI: > 100 µM
[5]
  TGI: > 100 µM
[7]
  TGI: > 100 µM
[8]
  TGI: > 100 µM
[9]
  TGI: > 100 µM
[10]
  TGI: > 100 µM
[11]
  TGI: > 100 µM
[12]
  TGI: > 100 µM
[13]
  TGI: > 100 µM
[15]
  TGI: > 100 µM
[16]
  TGI: > 100 µM
[17]
  TGI: > 100 µM
[18]
  TGI: > 100 µM

## CN(C)CCNC(=O)c1ccccc1Nc1c(Cl)cccc1Cl
[1]
  TGI: 25.8 µM
[2]
  TGI: 27 µM
[4]
  TGI: 21 µM
[6]
  TGI: 29.7 µM
[8]
  TGI: 30.4 µM
[9]
  TGI: 26.8 µM
[10]
  TGI: 30.2 µM
[11]
  TGI: 23.7 µM
[13]
  TGI: 28.2 µM
[14]
  TGI: 20.7 µM
[15]
  TGI: 25.8 µM
[17]
  TGI: 29.2 µM

## S=C(Nc1ccc(Cl)cc1)c1ccc(CN2CCCCC2)s1
[1]
  TGI: 14.2 µM
[2]
  TGI: 6.97 µM
[4]
  TGI: 60.2 µM
[19]
  TGI: 29 µM
[5]
  TGI: > 100 µM
[6]
  TGI: 80.7 µM
[7]
  TGI: > 100 µM
[8]
  TGI: 12.5 µM
[10]
  TGI: > 100 µM
[11]
  TGI: 21.6 µM
[12]
  TGI: 56.8 µM
[13]
  TGI: 37.2 µM
[15]
  TGI: 6.14 µM
[16]
  TGI: 21.9 µM
[17]
  TGI: 30.5 µM
[18]
  TGI: 16.8 µM

## CC(C)NC1CCCCC2c3cc(F)ccc3[C@]12O (stereo not given in full)
[1]
  TGI: > 100 µM
[2]
  TGI: > 100 µM
[4]
  TGI: > 100 µM
[19]
  TGI: > 100 µM
[5]
  TGI: > 100 µM
[6]
  TGI: > 100 µM
[8]
  TGI: > 100 µM
[9]
  TGI: > 100 µM
[10]
  TGI: > 100 µM
[11]
  TGI: > 100 µM
[12]
  TGI: > 100 µM
[13]
  TGI: > 100 µM
[14]
  TGI: > 100 µM
[15]
  TGI: > 100 µM
[16]
  TGI: > 100 µM
[17]
  TGI: > 100 µM

## CC1(OCc2ccccc2)C(=O)N2C1N(C(=O)OCc1ccccc1)CC2(C)C (stereo not given)
[1]
  TGI: > 100 µM
[2]
  TGI: 90.5 µM
[4]
  TGI: > 100 µM
[19]
  TGI: > 100 µM
[5]
  TGI: > 100 µM
[6]
  TGI: > 100 µM
[8]
  TGI: > 100 µM
[10]
  TGI: > 100 µM
[11]
  TGI: > 100 µM
[13]
  TGI: > 100 µM
[14]
  TGI: > 100 µM
[15]
  TGI: > 100 µM
[16]
  TGI: > 100 µM
[17]
  TGI: 77.4 µM

## CC(/C=C/c1ccccc1)=N\N=C(C)\C=C\c1ccccc1
[2]
  TGI: > 100 µM
[4]
  TGI: > 100 µM
[19]
  TGI: > 100 µM
[5]
  TGI: > 100 µM
[6]
  TGI: > 100 µM
[8]
  TGI: > 100 µM
[9]
  TGI: > 100 µM
[10]
  TGI: > 100 µM
[11]
  TGI: > 100 µM
[12]
  TGI: > 100 µM
[13]
  TGI: > 100 µM
[14]
  TGI: > 100 µM
[15]
  TGI: > 100 µM
[16]
  TGI: > 100 µM
[17]
  TGI: > 100 µM

## O=C1CC2(CCN(CC3COc4ccccc4O3)CC2)C(=O)N1N1CCCCCC1 (stereo not given)
[1]
  TGI: > 100 µM
[2]
  TGI: > 100 µM
[3]
  TGI: > 100 µM
[4]
  TGI: > 100 µM
[19]
  TGI: > 100 µM
[5]
  TGI: > 100 µM
[6]
  TGI: > 100 µM
[7]
  TGI: > 100 µM
[8]
  TGI: > 100 µM
[9]
  TGI: > 100 µM
[13]
  TGI: > 100 µM
[14]
  TGI: > 100 µM
[15]
  TGI: > 100 µM
[17]
  TGI: 63.6 µM
